From paper PMC5562305, “Impact of novel palmitoylated prolactin-releasing peptide analogs on metabolic changes in mice with diet-induced obesity” (PLoS ONE, 2017)
Starred links: 1 amine or outer side, 2 acyl side, 3 side chain; linkers in the order of their positions; H or OH if unused. Residues, ends and D or L forms follow the SMILES beside them. Groups on a side chain read outwards from the residue. *: point of attachment. TTDA(Palmitoyl) = CCCCCCCCCCCCCCCC(=O)NCCCOCCOCCOCCCN*; Suc = O=C(CCC(=O)[*:2])[*:1]

System: urinary metabolites
Assay: NMR-based metabolomics of urine of DIO mice
Assay type: in vivo, C57BL/6 mice
Parameters: key to DMA, Mean / DMG, Mean / MA, Mean / TMA, Mean / acetate, Mean / allantoin, Mean / carnitine, Mean / choline, Mean / cis-aconitate, Mean / creatine+creatinine, Mean / creatine, Mean / creatinine, Mean / ethanolamine, Mean / formate, Mean / galactose, Mean / glucose, Mean / glycine, Mean / lactate, Mean / succinate, Mean / vinylacetylglycine, Mean: TSA-normalized intensity of the metabolite's representative NMR signal
Conditions: urine of DIO mice, NMR metabolomics
Procedure: Urine samples for NMR-based metabolomics were collected prior to the start of the interventions and at the end of the experiment. For overnight urine collection (from 5 pm to 8 am), the mice were housed in individual metabolic cages (Tecniplast, Buguggiate, Italy) without access to food. Samples were collected with the addition of NaN3 and stored at -80°C until NMR analysis.
The urine samples were thawed at room temperature and centrifuged at 13 684 x g for 5 min prior to the NMR experiments. A 200-μl aliquot of supernatant was diluted with 340 μl of H2O mixed with 60 μl of phosphate buffer (1.5 M KH2PO4 in D2O containing 2 mM NaN3 and 0.1% trimethylsilyl propionic acid (TSP), pH 7.4) and transferred to a 5-mm NMR tube. The NMR data were acquired with a 600 MHz Bruker Avance III spectrometer (Bruker BioSpin, Rheinstetten, Germany) equipped with a 5-mm TCI cryogenic probe head. All of the experiments were performed at 300 K. Automatic tuning, matching, shimming and adjusting of the 90° pulse length were performed for each sample.
As mouse urine naturally contains urinary proteins, the NMR spectra were acquired using a Carr-Purcell-Meiboom-Gill (CPMG) pulse sequence with water presaturation (Bruker pulse sequence cpmgpr1d) to eliminate the strong protein background. […] For better metabolite identification, a short J-resolved experiment with presaturation (NS = 2, SW = 16 ppm, TD = 8k, number of increments = 40, SW = 78.125 Hz in the indirect dimension, and relaxation delay = 2 s) was executed for all samples. Additional two-dimensional ^1H-^1H correlation spectroscopy (COSY) and ^1H-^13C heteronuclear multiple-quantum correlation (HMQC) experiments (Bruker pulse sequences cosygpprqf and hmqcphpr) were performed for selected samples.
The acquired data were processed using Topspin 3.2 software (Bruker BioSpin, Rheinstetten, Germany). Line broadening of 0.3 Hz was applied on free induction decays (FIDs) prior to Fourier transformation. The spectra were automatically phased, baseline corrected and referenced to the signal of TSP (0.00 ppm).
The assignment of individual metabolites was achieved by comparing the proton spectra with the spectra of pure metabolites using Chenomx NMR Suite 7.6 (Chenomx Inc., Edmonton, AB, Canada), the HMDB database and previously published metabolomic data. The identification of metabolites was supported through J-resolved and COSY experiments and, if possible, confirmed using carbon chemical shifts extracted from the HMQC spectra.
For quantitation of individual metabolites, the CPMG spectra were uniformly binned in the range of 0.10–10.00 ppm to 0.01-ppm intervals using AMIX software (Bruker BioSpin, Rheinstetten, Germany). This procedure reduced the dimensionality of the data, eliminated chemical shift variations and thus simplified the reproducible automatic quantification. Regions corresponding to water (4.60–4.90 ppm) and urea (5.60–6.00 ppm) were removed prior to analysis. As the dilutions of the original urine samples differed (due to the differences in water intake during urine collection), all of the spectra were normalized to the total spectral area (TSA). For each identified metabolite, one representative signal was chosen and then quantified as the sum of appropriate adjacent 0.01-ppm bins to cover the whole signal width. The metabolite concentration was expressed as the TSA-normalized intensity of the respective signal. For selection of an appropriate statistical method (parametric or non-parametric) the Lilliefors test of normality was performed. […] Metabolite alterations with a P < 0.05 were considered statistically significant. Statistical analysis was performed using Matlab software (“MATLAB version 8.6 (R2015b). Natick, Massachusetts: The MathWorks Inc., 2015.,” n.d.). […]

[1] = difference of analog mean vs saline mean

**Q.** Which “creatine, Saline/analog %” value [1] does the source give for `CCCCCCCCCCCCCCCC(=O)NCCCOCCOCCOCCCNC(=O)CCC(=O)NCCCC[C@H](NC(=O)[C@@H](NC(=O)[C@H](CCC(=O)O)NC(=O)[C@H](CCSC)NC(=O)[C@H](CO)NC(=O)[C@H](Cc1c[nH]cn1)NC(=O)[C@H](CCCNC(=N)N)NC(=O)[C@H](Cc1c[nH]cn1)NC(=O)[C@@H](NC(=O)[C@H](CCCNC(=N)N)NC(=O)[C@H](CO)NC(=O)CCC(=O)NCCCOCCOCCOCCCNC(=O)CCCCCCCCCCCCCCC)[C@@H](C)O)[C@@H](C)CC)C(=O)N[C@H](C(=O)N1CCC[C@H]1C(=O)N[C@@H](CC(=O)O)C(=O)N[C@H](C(=O)N[C@@H](CC(N)=O)C(=O)N1CCC[C@H]1C(=O)N[C@@H](C)C(=O)N[C@@H](Cc1c[nH]c2ccccc12)C(=O)N[C@@H](Cc1ccc(O)cc1)C(=O)N[C@@H](C)C(=O)N[C@@H](CO)C(=O)N[C@@H](CCCNC(=N)N)C(=O)NCC(=O)N[C@H](C(=O)N[C@@H](CCCNC(=N)N)C(=O)N1CCC[C@H]1C(=O)N[C@H](C(=O)NCC(=O)N[C@@H](CCCNC(=N)N)C(=O)N[C@@H](Cc1ccccc1)C(N)=O)C(C)C)[C@@H](C)CC)[C@@H](C)CC)[C@@H](C)O` [analog 3] ({TTDA(Palmitoyl)-Suc}-SRTHRHSMEIK([Suc-TTDA(Palmitoyl)])TPDINPAWYASRGIRPVGRF-NH2) here?
**A.** 0.053%

**Q.** What about the “creatinine, Saline/analog %” value [1] of the same compound?
**A.** 0.053%

**Q.** What about the “ethanolamine, Saline/analog %” value [1] of the same compound?
**A.** 0.053%

**Q.** And the “formate, Saline/analog %” value [1]?
**A.** 0.00334%

**Q.** And the “fumarate, Saline/analog %” value [1]?
**A.** -0.141%

**Q.** And the “galactose, Saline/analog %” value [1]?
**A.** -0.254%

**Q.** What about the “glucose, Saline/analog %” value [1] of the same compound?
**A.** -0.116%

**Q.** What about the “glycine, Saline/analog %” value [1] of the same compound?
**A.** -0.035%

**Q.** And the “hexanoylglycine + acids (0.88 ppm), Saline/analog %” value [1]?
**A.** 0.165%

**Q.** What about the “hippurate (7.55 ppm), Saline/analog %” value [1] of the same compound?
**A.** -0.140%

**Q.** And the “hippurate (7.64 ppm), Saline/analog %” value [1]?
**A.** -0.133%

**Q.** And the “hippurate (7.84 ppm), Saline/analog %” value [1]?
**A.** -0.124%

**Q.** What about the “lactate, Saline/analog %” value [1] of the same compound?
**A.** 0.112%

**Q.** What about the “multiplet acids (1.6 ppm), Saline/analog %” value [1] of the same compound?
**A.** 0.172%

**Q.** What about the “putrescin, Saline/analog %” value [1] of the same compound?
**A.** -0.021%

**Q.** And the “succinate, Saline/analog %” value [1]?
**A.** -0.140%

**Q.** And the “taurine (3.27 ppm), Saline/analog %” value [1]?
**A.** -0.063%

**Q.** What about the “taurine (3.43 ppm), Saline/analog %” value [1] of the same compound?
**A.** -0.093%

**Q.** And the “trigonelline (8.84 ppm), Saline/analog %” value [1]?
**A.** -0.159%

**Q.** What about the “trigonelline (9.13 ppm), Saline/analog %” value [1] of the same compound?
**A.** -0.171%

**Q.** What about the “vinylacetylglycine, Saline/analog %” value [1] of the same compound?
**A.** 0.175%

**Q.** And the “2-OG (2.45 ppm), Mean” value (group mean)?
**A.** 11.878

**Q.** What about the “2-OG (3.01 ppm), Mean” value (group mean) of the same compound?
**A.** 10.469

**Q.** And the “2-PY (8.33 ppm), Mean” value (group mean)?
**A.** 1.098

**Q.** What about the “3-indoxylsulfate (7.51 ppm), Mean” value (group mean) of the same compound?
**A.** 1.344

**Q.** And the “3-indoxylsulfate (7.71 ppm), Mean” value (group mean)?
**A.** 0.810

**Q.** And the “4-PY (7.97 ppm), Mean” value (group mean)?
**A.** 2.017

**Q.** What about the “4-PY (8.55 ppm), Mean” value (group mean) of the same compound?
**A.** 0.633

**Q.** What about the “DMA, Mean” value (group mean) of the same compound?
**A.** 5.618

**Q.** And the “DMG, Mean” value (group mean)?
**A.** 1.853

**Q.** What about the “MA, Mean” value (group mean) of the same compound?
**A.** 3.016

**Q.** What about the “MNA (8.90 ppm), Mean” value (group mean) of the same compound?
**A.** 0.487

**Q.** What about the “MNA (8.97 ppm), Mean” value (group mean) of the same compound?
**A.** 0.470

**Q.** What about the “MNA (9.265 ppm), Mean” value (group mean) of the same compound?
**A.** 0.490

**Q.** What about the “MNA-Nox (7.75 ppm), Mean” value (group mean) of the same compound?
**A.** 0.972

**Q.** What about the “MNA-Nox (8.13 ppm), Mean” value (group mean) of the same compound?
**A.** 0.792

**Q.** What about the “MNA-Nox (8.49 ppm), Mean” value (group mean) of the same compound?
**A.** 0.511

**Q.** And the “MNA-Nox (8.75 ppm), Mean” value (group mean)?
**A.** 0.485

**Q.** What about the “N-carbamoylalanine (2.38 ppm), Mean” value (group mean) of the same compound?
**A.** 11.854

**Q.** What about the “N-carbamoylalanine (3.31 ppm), Mean” value (group mean) of the same compound?
**A.** 9.499

**Q.** What about the “N-isovalerylglycine + oxovalerate (0.92 ppm), Mean” value (group mean) of the same compound?
**A.** 16.056

**Q.** And the “TMA, Mean” value (group mean)?
**A.** 11.780

**Q.** What about the “acetate, Mean” value (group mean) of the same compound?
**A.** 3.429

**Q.** And the “allantoin, Mean” value (group mean)?
**A.** 22.447

**Q.** And the “carnitine, Mean” value (group mean)?
**A.** 6.067

**Q.** What about the “choline, Mean” value (group mean) of the same compound?
**A.** 1.970

**Q.** What about the “cis-aconitate, Mean” value (group mean) of the same compound?
**A.** 8.481

**Q.** What about the “citrate (2.55 ppm), Mean” value (group mean) of the same compound?
**A.** 29.434

**Q.** What about the “citrate (2.69 ppm), Mean” value (group mean) of the same compound?
**A.** 26.220

**Q.** And the “creatine+creatinine, Mean” value (group mean)?
**A.** 24.904

**Q.** What about the “creatine, Mean” value (group mean) of the same compound?
**A.** 7.343

**Q.** What about the “creatinine, Mean” value (group mean) of the same compound?
**A.** 11.686

**Q.** What about the “ethanolamine, Mean” value (group mean) of the same compound?
**A.** 8.370

**Q.** And the “formate, Mean” value (group mean)?
**A.** 0.199

**Q.** What about the “fumarate, Mean” value (group mean) of the same compound?
**A.** 0.151

**Q.** And the “galactose, Mean” value (group mean)?
**A.** 0.578

**Q.** What about the “glucose, Mean” value (group mean) of the same compound?
**A.** 3.207

**Q.** And the “glycine, Mean” value (group mean)?
**A.** 5.874

**Q.** And the “hexanoylglycine + acids (0.88 ppm), Mean” value (group mean)?
**A.** 15.361

**Q.** What about the “hippurate (7.55 ppm), Mean” value (group mean) of the same compound?
**A.** 3.987

**Q.** And the “hippurate (7.64 ppm), Mean” value (group mean)?
**A.** 2.057

**Q.** What about the “hippurate (7.84 ppm), Mean” value (group mean) of the same compound?
**A.** 4.311

**Q.** And the “lactate, Mean” value (group mean)?
**A.** 6.853

**Q.** What about the “multiplet acids (1.6 ppm), Mean” value (group mean) of the same compound?
**A.** 12.521

**Q.** And the “putrescin, Mean” value (group mean)?
**A.** 8.726

**Q.** What about the “succinate, Mean” value (group mean) of the same compound?
**A.** 9.267

**Q.** And the “taurine (3.27 ppm), Mean” value (group mean)?
**A.** 24.146

**Q.** What about the “taurine (3.43 ppm), Mean” value (group mean) of the same compound?
**A.** 20.508

**Q.** And the “trigonelline (8.84 ppm), Mean” value (group mean)?
**A.** 0.263

**Q.** And the “trigonelline (9.13 ppm), Mean” value (group mean)?
**A.** 0.106

**Q.** What about the “vinylacetylglycine, Mean” value (group mean) of the same compound?
**A.** 3.527
